Measured values published in patent US11312719B2, “9-substituted amino triazolo quinazoline derivatives as adenosine receptor antagonists, pharmaceutical compositions and their use” (Merck Sharp & Dohme Corp., priority 2018, dated 2022).

Legend:
[1] = molecular target: human A2a adenosine receptor (Homo sapiens (Human), UniProt P29274); assay: A2a receptor affinity radioligand binding assay ([3H] SCH58261); conditions: for IC50: membranes from HEK293 or CHO cells expressing human A2a receptor
Summary of the method: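 Membranes from HEK293 or CHO cells expressing human A2a were preincubated 15–30 min at room temperature with compound, then incubated 60 min at room temperature with [3H]SCH58261 (diluted to 4 nM) in 50 mM Tris pH 7.4, 10 mM MgCl2, 0.005% Tween20. Bound radioactivity was collected by filtration; nonspecific binding defined with 1 μM ZM241385; IC50 from 4-parameter logistic fit.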

[2] = molecular target: human A2b adenosine receptor (Homo sapiens (Human), UniProt P29275); assay: A2b radioligand filtration binding assay; conditions: for IC50: membranes from HEK293 cells expressing human A2b receptor
human A2b adenosine receptor, sequence (P29275 whole entry): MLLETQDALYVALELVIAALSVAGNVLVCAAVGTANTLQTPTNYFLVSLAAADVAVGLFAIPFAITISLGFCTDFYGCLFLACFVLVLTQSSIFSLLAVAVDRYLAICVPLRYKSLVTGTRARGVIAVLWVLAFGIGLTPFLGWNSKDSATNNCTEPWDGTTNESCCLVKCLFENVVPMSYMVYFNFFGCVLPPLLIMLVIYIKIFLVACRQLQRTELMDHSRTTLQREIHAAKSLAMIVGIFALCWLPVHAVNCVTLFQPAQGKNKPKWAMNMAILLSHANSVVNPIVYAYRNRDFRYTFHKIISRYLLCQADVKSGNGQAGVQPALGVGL
Summary of the method: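 Membranes from HEK293 cells expressing human A2b receptor preincubated with compound 15 to 30 min at room temperature, then tritiated proprietary A2b antagonist (diluted to 14 nM before addition) added in PBS pH 7.4 for 60 min at room temperature. Bound radioactivity by filtration and scintillation; non-specific binding with 20 μM NECA; IC50 by 4-parameter logistic fit.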

human A2a adenosine receptor, sequence (P29274 whole entry): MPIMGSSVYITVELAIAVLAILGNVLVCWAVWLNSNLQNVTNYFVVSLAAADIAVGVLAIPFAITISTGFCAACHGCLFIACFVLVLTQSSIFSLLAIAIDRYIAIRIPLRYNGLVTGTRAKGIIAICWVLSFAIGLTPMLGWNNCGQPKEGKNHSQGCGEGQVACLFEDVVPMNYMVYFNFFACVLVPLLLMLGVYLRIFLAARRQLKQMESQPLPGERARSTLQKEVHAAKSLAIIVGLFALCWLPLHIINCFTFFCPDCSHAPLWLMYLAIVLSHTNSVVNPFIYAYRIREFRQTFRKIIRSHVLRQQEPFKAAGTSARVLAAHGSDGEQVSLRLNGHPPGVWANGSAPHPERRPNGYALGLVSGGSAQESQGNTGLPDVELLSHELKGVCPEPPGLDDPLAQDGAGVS

IC50 [1] | IC50 [2] | A2A binding % Inh. @ 1000 nM ([1]; @ 1000 nM) | A2B binding % Inh. @ 10000 nM ([2]; @ 10000 nM) | Structure (SMILES)
0.0002 µM | 0.0034 µM |  |  | COc1cc2nc(N)n3nc(C4CCC(C)N(c5cnn(C6CCCC6O)c5)C4)nc3c2cc1F (single isomer, unassigned) [Example 89, (1S or 1R,2S or 2R)-2-(4-((2S,5R or 2R,5S)-5-(5-amino-9-fluoro-8-methoxy-[1,2,4]triazolo[1,5-c]quinazolin-2-yl)-2-methylpiperidin-1-yl)-1H-pyrazol-1-yl)cyclopentan-1-ol]
0.0012 µM | 0.029 µM |  |  | COc1cc2nc(N)n3nc([C@@H]4C[C@H](C)CN(c5cnn(CC(C)(C)O)c5)C4)nc3c2cc1F (single isomer, unassigned) [Example 90, 1-(4-((3R,5S or 3S,5R)-3-(5-amino-9-fluoro-8-methoxy-[1,2,4]triazolo[1,5-c]quinazolin-2-yl)-5-methylpiperidin-1-yl)-1H-pyrazol-1-yl)-2-methylpropan-2-ol]
0.0447 µM | 4.62 µM |  |  | COc1cc2nc(N)n3nc([C@H]4C[C@@H](C)CN(c5cnn(CC(C)(C)O)c5)C4)nc3c2cc1F (single isomer, unassigned) [Example 91, 1-(4-((3S,5R or 3R,5S)-3-(5-amino-9-fluoro-8-methoxy-[1,2,4]triazolo[1,5-c]quinazolin-2-yl)-5-methylpiperidin-1-yl)-1H-pyrazol-1-yl)-2-methylpropan-2-ol]
0.0078 µM | 0.752 µM |  |  | COc1cc2nc(N)n3nc([C@@H]4CCCN(c5cnn(CCCC(C)O)c5)C4)nc3c2cc1F (single isomer, unassigned) [Example 94, (S or R)-5-(4-((R)-3-(5-amino-9-fluoro-8-methoxy-[1,2,4]triazolo[1,5-c]quinazolin-2-yl)piperidin-1-yl)-1H-pyrazol-1-yl)pentan-2-ol]
0.205 µM | 5.04 µM |  |  | COc1cc2nc(N)n3nc([C@@H]4CCCN(c5cnn(CCCC(C)O)c5)C4)nc3c2cc1F (single isomer, unassigned) [Example 95, (R or S)-5-(4-((R)-3-(5-amino-9-fluoro-8-methoxy-[1,2,4]triazolo[1,5-c]quinazolin-2-yl)piperidin-1-yl)-1H-pyrazol-1-yl)pentan-2-ol]
0.0007 µM | 0.0246 µM |  |  | COc1cc2nc(N)n3nc([C@@H]4CC[C@H](C)N(c5cnn(C6CCC(C)(O)CC6)c5)C4)nc3c2cc1F (single isomer, unassigned) [Example 96, rac-(1r,4s or 1r,4r)-4-(4-((2S,5R or 2R,5S)-5-(5-amino-9-fluoro-8-methoxy-[1,2,4]triazolo[1,5-c]quinazolin-2-yl)-2-methylpiperidin-1-yl)-1H-pyrazol-1-yl)-1-methylcyclohexan-1-ol]
0.0006 µM | 0.0333 µM |  |  | COc1cc2nc(N)n3nc([C@@H]4CC[C@H](C)N(c5cnn(C6CCC(C)(O)CC6)c5)C4)nc3c2cc1F (single isomer, unassigned) [Example 97, rac-(1r,4r or 1r,4s)-4-(4-((2S,5R or 2R,5S)-5-(5-amino-9-fluoro-8-methoxy-[1,2,4]triazolo[1,5-c]quinazolin-2-yl)-2-methylpiperidin-1-yl)-1H-pyrazol-1-yl)-1-methylcyclohexan-1-ol]
0.0009 µM | 0.116 µM |  |  | COc1cc2nc(N)n3nc([C@@H]4CCCN(c5cnn([C@H]6CC[C@]6(C)O)c5)C4)nc3c2cc1F (single isomer, unassigned) [Example 98, (1S or 1R,2S or 2R)-2-(4-((R)-3-(5-amino-9-fluoro-8-methoxy-[1,2,4]triazolo[1,5-c]quinazolin-2-yl)piperidin-1-yl)-1H-pyrazol-1-yl)-1-methylcyclobutan-1-ol]
0.0044 µM | 0.231 µM |  |  | COc1cc2nc(N)n3nc([C@@H]4CCCN(c5cnn([C@@H]6CC[C@@]6(C)O)c5)C4)nc3c2cc1F (single isomer, unassigned) [Example 99, (1R or 1S,2R or 2S)-2-(4-((R)-3-(5-amino-9-fluoro-8-methoxy-[1,2,4]triazolo[1,5-c]quinazolin-2-yl)piperidin-1-yl)-1H-pyrazol-1-yl)-1-methylcyclobutan-1-ol]
0.0327 µM | 0.39 µM |  |  | Cn1cc(N2CCCC(c3nc4c5cc(F)c(F)cc5nc(N)n4n3)C2)cn1 (single isomer, unassigned) [Example 101, (R or S)-8,9-difluoro-2-(1-(1-methyl-1H-pyrazol-4-yl)piperidin-3-yl)-[1,2,4]triazolo[1,5-c]quinazolin-5-amine]
0.104 µM | 0.539 µM |  |  | Cn1cc(N2CCCC(c3nc4c5cc(F)ccc5nc(N)n4n3)C2)cn1 (single isomer, unassigned) [Example 102, (R or S)-9-fluoro-2-(1-(1-methyl-1H-pyrazol-4-yl)piperidin-3-yl)-[1,2,4]triazolo[1,5-c]quinazolin-5-amine]
0.0005 µM | 0.137 µM |  |  | Cn1cc(N2CCCC(c3nc4c5cc(F)cc(F)c5nc(N)n4n3)C2)cn1 (single isomer, unassigned) [Example 103, (R or S)-7,9-difluoro-2-(1-(1-methyl-1H-pyrazol-4-yl)piperidin-3-yl)-[1,2,4]triazolo[1,5-c]quinazolin-5-amine]
0.0177 µM | 0.766 µM |  |  | COc1cc(Cl)cc2c1nc(N)n1nc(C3CCCN(c4cnn(C)c4)C3)nc21 (single isomer, unassigned) [Example 104, (R or S)-9-chloro-7-methoxy-2-(1-(1-methyl-1H-pyrazol-4-yl)piperidin-3-yl)-[1,2,4]triazolo[1,5-c]quinazolin-5-amine]
0.329 µM | 0.743 µM |  |  | Cc1cc(Cl)cc2c1nc(N)n1nc(C3CCCN(c4cnn(C)c4)C3)nc21 (single isomer, unassigned) [Example 105, (R or S)-9-chloro-7-methyl-2-(1-(1-methyl-1H-pyrazol-4-yl)piperidin-3-yl)-[1,2,4]triazolo[1,5-c]quinazolin-5-amine]
0.316 µM | 0.43 µM |  |  | Cn1cc(N2CCCC(c3nc4c5cc(Cl)ccc5nc(N)n4n3)C2)cn1 (single isomer, unassigned) [Example 106, (R or S)-9-chloro-2-(1-(1-methyl-1H-pyrazol-4-yl)piperidin-3-yl)-[1,2,4]triazolo[1,5-c]quinazolin-5-amine]
0.127 µM | 1.52 µM |  |  | Cn1cc(N2CCCC(c3nc4c5c(F)c(F)ccc5nc(N)n4n3)C2)cn1 (single isomer, unassigned) [Example 107, (R or S)-9,10-difluoro-2-(1-(1-methyl-1H-pyrazol-4-yl)piperidin-3-yl)-[1,2,4]triazolo[1,5-c]quinazolin-5-amine]
 | 8.47 µM | 36% Inh. |  | COc1ccc2nc(N)n3nc(C4CCCN(c5cnn(C)c5)C4)nc3c2c1 (single isomer, unassigned) [Example 108, (R or S)-9-methoxy-2-(1-(1-methyl-1H-pyrazol-4-yl)piperidin-3-yl)-[1,2,4]triazolo[1,5-c]quinazolin-5-amine]
0.0506 µM | 2.91 µM |  |  | COc1cc(F)cc2c1nc(N)n1nc([C@@H]3CC[C@@H](C)N(c4cn(CC(C)(C)O)nc4C)C3)nc21 (single isomer, unassigned) [Example 114, 1-(4-((2R or 2S,5R or 5S)-5-(5-amino-9-fluoro-7-methoxy-[1,2,4]triazolo[1,5-c]quinazolin-2-yl)-2-methylpiperidin-1-yl)-3-methyl-1H-pyrazol-1-yl)-2-methylpropan-2-ol]
0.0029 µM | 0.895 µM |  |  | COc1cc(F)cc2c1nc(N)n1nc([C@@H]3CC[C@H](C)N(c4cn(CC(C)(C)O)nc4C)C3)nc21 (single isomer, unassigned) [Example 115, 1-(4-((2S or 2R,5R or 5S)-5-(5-amino-9-fluoro-7-methoxy-[1,2,4]triazolo[1,5-c]quinazolin-2-yl)-2-methylpiperidin-1-yl)-3-methyl-1H-pyrazol-1-yl)-2-methylpropan-2-ol]
0.207 µM |  |  | 35% Inh. | COc1cc(F)cc2c1nc(N)n1nc([C@H]3CC[C@H](C)N(c4cn(CC(C)(C)O)nc4C)C3)nc21 (single isomer, unassigned) [Example 116, 1-(4-((2S or 2R,5S or 5R)-5-(5-amino-9-fluoro-7-methoxy-[1,2,4]triazolo[1,5-c]quinazolin-2-yl)-2-methylpiperidin-1-yl)-3-methyl-1H-pyrazol-1-yl)-2-methylpropan-2-ol]
0.0002 µM | 0.013 µM |  |  | COc1cc(F)cc2c1nc(N)n1nc([C@H]3CC[C@@H](C)N(c4cn(CC(C)(C)O)nc4C)C3)nc21 (single isomer, unassigned) [Example 117, 1-(4-((2R or 2S,5S or 5R)-5-(5-amino-9-fluoro-7-methoxy-[1,2,4]triazolo[1,5-c]quinazolin-2-yl)-2-methylpiperidin-1-yl)-3-methyl-1H-pyrazol-1-yl)-2-methylpropan-2-ol]

Structure (SMILES) | IC50 [1] | IC50 [2] | A2A binding % Inh. @ 1000 nM ([1]; @ 1000 nM) | A2B binding % Inh. @ 10000 nM ([2]; @ 10000 nM)
COc1cc2nc(N)n3nc([C@@H]4C[C@@H](C)CN(c5cnn(CC(C)(C)O)c5)C4)nc3c2cc1F (single isomer, unassigned) [Example 92, rac-1-(4-((3R,5R or 3S,5S)-3-(5-amino-9-fluoro-8-methoxy-[1,2,4]triazolo[1,5-c]quinazolin-2-yl)-5-methylpiperidin-1-yl)-1H-pyrazol-1-yl)-2-methylpropan-2-ol] | 0.0109 µM | 0.602 µM |  | 
